Reference: PubChem BioAssay AID208 (DTP/NCI, 2004)
Results filed as inconclusive are left out.

Test system: HT29 intrarenal xenograft, nude mice, tumor weight change
Experiment: NCI In Vivo Anticancer Drug Screen. Data for tumor model HT29;CX-1 Human Adenocarcinoma (MER+) (intrarenal inoculation) in NU/NU BALB/C (nude) mice
Settings: endpoint: mean tumor weight change, higher = larger tumour
Experimental: The antitumor activity of compounds was measured in mice bearing transplantable tumors. Survival or tumor size were measured and the results are expressed as the measurement made in the treated group (T) divided by the measurement made in the vehicle treated control group (C). The tumor model used in this assay is HT29;CX-1 Human Adenocarcinoma (MER+) (intrarenal inoculation) in NU/NU BALB/C (nude) mice

Cc1cc(N(CC(C)Br)CC(C)Br)ccc1N=Nc1ccccc1C(=O)O (centres undefined)
T/C (dose: 3.13 mg/kg/injection, schedule: Q01DX010 (sc), vehicle: saline with Tween-80): 65 % of control
T/C (dose: 6.25 mg/kg/injection, schedule: Q01DX010 (sc), vehicle: saline with Tween-80): 55 % of control
T/C (dose: 12.5 mg/kg/injection, schedule: Q01DX010 (sc), vehicle: saline with Tween-80): 57 % of control

Cc1ccoc1
T/C (dose: 50.0 mg/kg/injection, schedule: Q01DX010 (ip), vehicle: saline with Tween-80): 92 % of control
T/C (dose: 100.0 mg/kg/injection, schedule: Q01DX010 (ip), vehicle: saline with Tween-80): 63 % of control
T/C (dose: 200.0 mg/kg/injection, schedule: Q01DX010 (ip), vehicle: saline with Tween-80): 90 % of control

CNc1nc(NC)nc(NC)n1
T/C (dose: 12.5 mg/kg/injection, schedule: Q01DX010 (sc), vehicle: Klucel (hydroxypropylcellulose) (HPC)): 154 % of control
T/C (dose: 50.0 mg/kg/injection, schedule: Q01DX010 (sc), vehicle: Klucel (hydroxypropylcellulose) (HPC)): 73 % of control

CCCC(=O)O.CCCC(=O)O.CCCC(=O)O.CCCC(=O)O.[Rh].[Rh]
T/C (dose: 4.0 mg/kg/injection, schedule: Q04DX004 (sc), vehicle: suspension in saline): 99 % of control
T/C (dose: 8.0 mg/kg/injection, schedule: Q04DX004 (sc), vehicle: suspension in saline): 118 % of control

CC1CCC(n2cnc3c(Cl)ncnc32)O1 (centres undefined)
T/C (dose: 150.0 mg/kg/injection, schedule: Q04DX004 (sc), vehicle: Klucel (hydroxypropylcellulose) (HPC)): 76 % of control
T/C (dose: 300.0 mg/kg/injection, schedule: Q04DX004 (sc), vehicle: Klucel (hydroxypropylcellulose) (HPC)): 80 % of control
T/C (dose: 600.0 mg/kg/injection, schedule: Q04DX004 (sc), vehicle: Klucel (hydroxypropylcellulose) (HPC)): 64 % of control

CCCCNc1ccc2nnc(C)n2n1
T/C (dose: 150.0 mg/kg/injection, schedule: Q04DX004 (ip), vehicle: DMSO): 116 % of control
T/C (dose: 150.0 mg/kg/injection, schedule: Q04DX004 (ip), vehicle: sodium bicarbonate): 86 % of control

CS(=O)(=O)c1ncc(Br)cn1
T/C (dose: 25.0 mg/kg/injection, schedule: Q01DX010 (sc), vehicle: saline with Tween-80): 106 % of control
T/C (dose: 50.0 mg/kg/injection, schedule: Q01DX010 (sc), vehicle: saline with Tween-80): 123 % of control
T/C (dose: 100.0 mg/kg/injection, schedule: Q01DX010 (sc), vehicle: saline with Tween-80): 185 % of control

CCOC(=O)NC1=C(N2CC2)C(=O)C(NC(=O)OCC)=C(N2CC2)C1=O
T/C (dose: 1.56 mg/kg/injection, schedule: Q01DX010 (sc), vehicle: saline): 120 % of control
T/C (dose: 3.13 mg/kg/injection, schedule: Q01DX010 (sc), vehicle: saline): 88 % of control
T/C (dose: 6.25 mg/kg/injection, schedule: Q01DX010 (sc), vehicle: saline): 107 % of control

O=C(O)CP(=O)(O)O
T/C (dose: 600.0 mg/kg/injection, schedule: Q04DX004 (sc), vehicle: saline): 51 % of control
T/C (dose: 1200.0 mg/kg/injection, schedule: Q04DX004 (sc), vehicle: saline): 118 % of control
T/C (dose: 2400.0 mg/kg/injection, schedule: Q04DX004 (sc), vehicle: saline): 34 % of control
